Source: US11053205B2, “Phenazine derivatives as antimicrobial agents” (University of Florida Research Foundation, Incorporated, priority 2017, dated 2021)
Values after ≈ are worked out from the molar mass of the structure shown. Where two headings read alike, the source gives them in different places. Marks after values point to notes of the source that are not given here.

How the values were obtained:
MRSA-2 = experiment: MIC, broth microdilution (CLSI); details: for MRSA-2 MIC: 16 to 18 hours at 37° C.
MRSA BAA-1707 [1] = experiment: MIC, broth microdilution (CLSI); details: 16 to 18 hours at 37° C.; 0.10 = lowest concentration tested
VRE 700221 = experiment: MIC, broth microdilution (CLSI); details: 16 to 18 hours at 37° C.
MRSE 35984 = experiment: MIC, broth microdilution (CLSI); details: for MRSE 35984 MIC: 16 to 18 hours at 37° C.
MRSE 35984 biofilms = experiment: Calgary Biofilm Device (CBD) assay, MBC/MBEC; details: for MRSE 35984 MBEC / MRSE 35984 MBC: CBD; for MRSE 35984 MBEC: biofilm eradication; for MRSE 35984 MBC: planktonic killing; for MBC: Staphylococcus epidermidis, MRSE, read-out: MRSE 35984 MBC
MRSA BAA-1707 biofilms = experiment: Calgary Biofilm Device (CBD) assay, MBC/MBEC; details: for MRSA BAA-1707 MBC: planktonic killing
VRE 700221 biofilms = experiment: Calgary Biofilm Device (CBD) assay, MBC/MBEC; details: for VRE 700221 MBC / VRE 700221 MBEC: CBD; for VRE 700221 MBC: planktonic killing; for VRE 700221 MBEC: biofilm eradication
[2] = test system: M. tuberculosis H37Ra (ATCC 25177); experiment: MIC assay for Mycobacterium tuberculosis; format: cell-based; details: read-out: MtB H37Ra MIC
Method: The culture was then diluted with fresh medium until an OD600 of 0.01 was reached. […] The final DMSO concentration was maintained at 0.5%. […] Three rows were reserved for each compound. […] OD600 absorbance was recorded using SPECTRAMAX M5 (Molecular Devices). Data obtained from three independent experiments were analyzed using Excel.
The culture was then diluted with fresh medium until an OD600 of 0.01 was reached. […] The final DMSO concentration was maintained at 0.5%. […] Three rows were reserved for each compound. […] OD600 absorbance was recorded using SpectraMax M5 (Molecular Devices). Data obtained from three independent experiments were analyzed using Excel.

MRSA-2 biofilms = experiment: Calgary Biofilm Device (CBD) assay, MBC/MBEC; details: for MRSA-2 MBEC / MRSA-2 MBC: CBD; for MRSA-2 MBEC: biofilm eradication; for MBC: Staphylococcus aureus, MRSA, read-out: MRSA-2 MBC; for MRSA-2 MBC: planktonic killing
MRSA BAA-1707 [3] = experiment: Metal(II)-cation co-treatment MIC assay; format: cell-based; details: Staphylococcus aureus

CCN(CC)c1ccc2nc3c(O)c(Br)cc(Br)c3nc2c1Br [Compound 64A]
MRSA-2 MIC (MRSA-2): 0.3^a μM | Hemolysis at 200 μM (human red blood cells): ≤1% | MRSA BAA-1707 MIC (MRSA BAA-1707 [1]): 0.15^a μM | VRE 700221 MIC (VRE 700221): 0.3^a μM | MRSE 35984 MIC (MRSE 35984): 0.1^b μM | MRSE 35984 MBEC (MRSE 35984 biofilms): 6.25 µM | MRSE 35984 MBC (MRSE 35984 biofilms): 9.38 µM | MRSA BAA-1707 MBC (MRSA BAA-1707 biofilms; CBD): 9.38 µM | VRE 700221 MBC (VRE 700221 biofilms): 2.35 µM

CS(=O)(=O)N1CCN(C(=O)Oc2c(Br)cc(Br)c3nc4ccccc4nc23)C1=O [Compound 76A]
Hemolysis at 200 μM (human red blood cells): ≤1% | IC50 (HeLa cells): > 100 µM | VRE 700221 MIC (VRE 700221): 3.13 µM | MRSE 35984 MIC (MRSE 35984): 1.56 µM | MRSE 35984 MBEC (MRSE 35984 biofilms): 37.5 µM | MRSE 35984 MBC (MRSE 35984 biofilms): 18.8 µM | MRSA BAA-1707 MBEC (MRSA BAA-1707 biofilms; CBD, biofilm eradication): 75 µM | MRSA BAA-1707 MBC (MRSA BAA-1707 biofilms; CBD): 37.5 µM | VRE 700221 MBEC (VRE 700221 biofilms): 9.38^a/9.38^a μM | VRE 700221 MBC (VRE 700221 biofilms): 9.38^a/9.38^a μM

[H]/N=C(/N)N[C@H]1[C@H](O)[C@@H](O)[C@H](O[C@@H]2O[C@@H](C)[C@](O)(C=O)[C@H]2O[C@@H]2O[C@@H](CO)[C@H](O)[C@@H](O)[C@@H]2NC)[C@@H](N/C(N)=N\[H])[C@@H]1O [streptomycin, reference compound]
MIC ([2]; Mycobacterium tuberculosis, 168 h): 1.32 µM (≈ 0.768 µg/mL)

CO[C@H]1/C=C/O[C@@]2(C)Oc3c(C)c(O)c4c(O)c(c(/C=N/N5CCN(C)CC5)c(O)c4c3C2=O)NC(=O)/C(C)=C\C=C\[C@H](C)[C@H](O)[C@@H](C)[C@@H](O)[C@@H](C)[C@H](OC(C)=O)[C@@H]1C [Rifampin, reference compound]
MIC (MRSA-2; Staphylococcus aureus, MRSA, read-out: MRSA-2 MIC): 0.1 µM (≈ 0.0823 µg/mL) | MIC (MRSE 35984; Staphylococcus epidermidis, MRSE, read-out: MRSE 35984 MIC, 16 to 18 hours at 37° C.): 0.1 µM (≈ 0.0823 µg/mL) | MBC (MRSE 35984 biofilms): 3 µM (≈ 2.47 µg/mL) | MRSA-2 MBEC (MRSA-2 biofilms): 46.9 µM | MBC (MRSA-2 biofilms): 2 µM (≈ 1.65 µg/mL)

CC(=O)N[C@@H](CS)C(=O)O [NAC, reference compound]
MRSE 35984 MBEC (MRSE 35984 biofilms): >2000/>2000 μM | MRSE 35984 MBC (MRSE 35984 biofilms): >2000/>2000 μM | MRSA-2 MBEC (MRSA-2 biofilms): >2000/>2000 μM | MRSA-2 MBC (MRSA-2 biofilms): >2000/>2000 μM | VRE 700221 MBEC (VRE 700221 biofilms): >2000 />2000 μM | VRE 700221 MBC (VRE 700221 biofilms): >2000 />2000 μM

Cc1ccc2nc3c(O)c(Br)cc(Br)c3nc2c1 [Compound 52A]
Hemolysis at 200 μM (human red blood cells): ≤1% | VRE 700221 MIC (VRE 700221): 2.35^a μM | MRSE 35984 MIC (MRSE 35984): 0.3^a μM | VRE 700221 MBEC (VRE 700221 biofilms): 3.13 µM | VRE 700221 MBC (VRE 700221 biofilms): 12.5 µM | MIC [2]: 6.25 µM (≈ 2.3 µg/mL)

CCc1ccc2nc3c(O)ccc(Br)c3nc2c1 [Compound 67A]
IC50 (HeLa cells): > 100 µM | VRE 700221 MIC (VRE 700221): 12.5 µM | MRSE 35984 MIC (MRSE 35984): 9.38^a μM | MIC [2]: 25 µM (≈ 7.58 µg/mL)

Oc1c(Br)cc(Br)c2nc3cc(Cl)ccc3nc12 [Compound 61A]
MRSA-2 MIC (MRSA-2): 0.1^b μM | Hemolysis at 200 μM (human red blood cells): ≤1% | MRSE 35984 MIC (MRSE 35984): 0.1^b μM | MRSA-2 MBEC (MRSA-2 biofilms): 25 µM | MRSA-2 MBC (MRSA-2 biofilms): 6.25 µM

Oc1cccc2nc3ccccc3nc12 [1-OHP, 1-hydroxyphenazine]
MIC (MRSA BAA-1707 [3]): 250 µM | MIC (MRSA BAA-1707 [3]; read-out: MIC w/ Cu2+): 75 µM | MIC (MRSA BAA-1707 [3]; read-out: MIC w/ Fe2+): 250 µM | MIC (MRSA BAA-1707 [3]; read-out: MIC w/ Mg2+): 250 µM | MIC (MRSA BAA-1707 [3]; read-out: MIC w/ Zn2+): > 500 µM

O=C(O)CN(CCN(CC(=O)O)CC(=O)O)CC(=O)O [EDTA, ethylenediaminetetraacetic acid, reference compound]
MRSE 35984 MBEC (MRSE 35984 biofilms): > 2000 µM | MRSE 35984 MBC (MRSE 35984 biofilms): 1000 µM | MBC (MRSE 35984 biofilms): 1000 µM (≈ 292 µg/mL) | MRSA-2 MBEC (MRSA-2 biofilms): 2000/>2000 μM | MBC (MRSA-2 biofilms): 2000 µM (≈ 584 µg/mL) | MRSA BAA-1707 MBC (MRSA BAA-1707 biofilms; CBD): >2000 />2000 μM | MBC (MRSA BAA-1707 biofilms; Staphylococcus aureus, BAA1707|MRSA, read-out: MRSA BAA-1707 MBC, CBD, planktonic killing): > 2000 µM | MBC (VRE 700221 biofilms; Enterococcus, VRE, read-out: VRE 700221 MBC): > 2000 µM

Oc1c(Br)cc(Br)c2nc3cc(Cl)ccc3nc12 [Compound 27]
MRSA BAA-1707 MIC (MRSA BAA-1707 [1]): 0.1 µM | MRSE 35984 MBEC (MRSE 35984 biofilms): 2.35 µM | MIC ([2]; seven days at 37° C.): 3.13 µM (≈ 1.22 µg/mL)
